From ChEMBL document CHEMBL4130481, “Structures and Antibacterial Properties of Isorugosins H-J, Oligomeric Ellagitannins from Liquidambar formosana with Characteristic Bridging Groups between Sugar Moieties” (J Nat Prod, 2017)
Values after ≈ are worked out from the molar mass of the structure shown. Active and inactive are the calls of the source. No cut-off for these calls is given here.

What was measured:
Pseudomonas aeruginosa [1] = experiment: Antibacterial activity against Pseudomonas aeruginosa PAO1 after 24 hrs by liquid dilution method; type: functional
Staphylococcus aureus [2] = experiment: Antibacterial activity against methicillin-sensitive Staphylococcus aureus 209P after 24 hrs by liquid dilution method; type: functional
Staphylococcus aureus [3] = experiment: Antibacterial activity against methicillin-resistant Staphylococcus aureus isolate OM481 after 24 hrs by liquid dilution method; type: functional; conditions: isolate OM481, 24 h
Staphylococcus aureus [4] = experiment: Antibacterial activity against methicillin-resistant Staphylococcus aureus isolate OM505 after 24 hrs by liquid dilution method; type: functional; conditions: isolate OM505, 24 h
Pseudomonas aeruginosa [5] = experiment: Antibacterial activity against Pseudomonas aeruginosa PAO1 assessed as inhibition of green pigment formation; type: functional
Albumin [6] = target: T1, Albumin (Bos taurus, UniProt P02769); experiment: Binding affinity to bovine serum albumin assessed as retention time for compound-protein complex formation at 0.5 mg/ml by size exclusion chromatographic method (reference value: 16 mins); type: ADME; conditions: cattle
Albumin [7] = target: T1, Albumin; experiment: Binding affinity to bovine serum albumin by SDS-PAGE analysis; type: ADME; conditions: cattle, isolated protein
Staphylococcus aureus [8] = experiment: Antibacterial activity against methicillin-sensitive Staphylococcus aureus 209P; type: functional
Staphylococcus aureus [9] = experiment: Antibacterial activity against methicillin-resistant Staphylococcus aureus isolate OM481; type: functional
Staphylococcus aureus [10] = experiment: Antibacterial activity against methicillin-resistant Staphylococcus aureus isolate OM505; type: functional

T1 sequence (P02769 whole entry): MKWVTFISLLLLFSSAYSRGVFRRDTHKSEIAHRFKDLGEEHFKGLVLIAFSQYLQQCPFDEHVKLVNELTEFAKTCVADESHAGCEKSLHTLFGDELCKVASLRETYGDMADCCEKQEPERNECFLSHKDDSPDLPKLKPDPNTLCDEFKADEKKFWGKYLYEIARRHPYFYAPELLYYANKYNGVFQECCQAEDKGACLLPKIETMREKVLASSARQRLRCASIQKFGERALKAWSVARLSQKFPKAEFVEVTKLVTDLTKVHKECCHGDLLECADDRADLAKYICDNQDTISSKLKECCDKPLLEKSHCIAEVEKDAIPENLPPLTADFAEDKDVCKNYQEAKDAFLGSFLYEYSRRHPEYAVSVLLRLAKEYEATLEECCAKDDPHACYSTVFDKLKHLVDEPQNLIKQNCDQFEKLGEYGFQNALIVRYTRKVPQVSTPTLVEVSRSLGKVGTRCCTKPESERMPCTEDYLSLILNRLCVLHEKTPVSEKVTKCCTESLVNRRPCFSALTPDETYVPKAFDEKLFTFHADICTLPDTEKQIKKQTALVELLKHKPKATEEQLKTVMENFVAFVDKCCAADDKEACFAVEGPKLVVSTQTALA

Molecule: GENTAMICIN
- MIC (Pseudomonas aeruginosa [1]): 17 µM

Molecule: O=C(O[C@H]1[C@@H]2OC(=O)c3cc(Oc4c(C(=O)O)cc(O)c(O)c4O)c(O)c(O)c3-c3c(cc(O)c(O)c3O)C(=O)OC[C@H]2OC(O)[C@@H]1OC(=O)c1cc(O)c(O)c(O)c1)c1cc(O)c(O)c(O)c1 (some centres undefined)
- MIC (Staphylococcus aureus [2]): 67 µM (≈ 64 µg/mL)
- MIC (Staphylococcus aureus [3]): 34 µM (≈ 32.5 µg/mL)
- MIC (Staphylococcus aureus [4]): 67 µM (≈ 64 µg/mL)
- MIC (Pseudomonas aeruginosa [1]; PAO1, 24 h): > 1070 µM
- MIC (Pseudomonas aeruginosa [5]): 34 µM (≈ 32.5 µg/mL)
- Retention time (Albumin [6]): 9 to 12 min
- Activity (Albumin [7]): Active

Molecule: O=C1OC[C@H]2O[C@H](O)[C@@H]3OC(=O)c4cc(O)c(O)c(O)c4-c4c(cc(O)c(O)c4O)C(=O)O[C@H]3[C@@H]2OC(=O)c2cc(O)c(O)c(O)c2-c2c1cc(O)c(O)c2O
- inhibition (Pseudomonas aeruginosa [5]): Active

Molecule: O=C(O[C@@H]1O[C@@H]2COC(=O)c3cc(O)c(O)c(O)c3-c3c(cc(Oc4c(C(=O)O)cc(O)c(O)c4O)c(O)c3O)C(=O)O[C@H]2[C@H](OC(=O)c2cc(O)c(O)c(O)c2)[C@H]1OC(=O)c1cc(O)c(O)c(O)c1)c1cc(O)c(O)c(O)c1
- MIC (Staphylococcus aureus [2]): 58 µM (≈ 64.2 µg/mL)
- MIC (Staphylococcus aureus [3]): 29 µM (≈ 32.1 µg/mL)
- MIC (Staphylococcus aureus [4]): 58 µM (≈ 64.2 µg/mL)
- MIC (Pseudomonas aeruginosa [1]; PAO1, 24 h): > 926 µM
- MIC (Pseudomonas aeruginosa [5]): 29 µM (≈ 32.1 µg/mL)
- Retention time (Albumin [6]): 9 to 12 min
- Activity (Albumin [7]): Active

Molecule: NCC[C@H](O)C(=O)N[C@@H]1C[C@H](N)[C@@H](O[C@H]2O[C@H](CN)[C@@H](O)[C@H](O)[C@H]2O)[C@H](O)[C@H]1O[C@H]1O[C@H](CO)[C@@H](O)[C@H](N)[C@H]1O [AMIKACIN]
- MIC (Pseudomonas aeruginosa [1]; PAO1, 24 h): 14 µM (≈ 8.2 µg/mL)

Molecule: O=C(O[C@@H]1COC(=O)c2cc(O)c(O)c(O)c2-c2c(cc(O)c(O)c2O)C(=O)O[C@H]1[C@@H]1OC(=O)c2cc(O)c(O)c(O)c2-c2c(O)c(O)c(O)c3c2C(=O)O[C@H]1[C@H]3O)c1cc(O)c(O)c(O)c1
- inhibition (Pseudomonas aeruginosa [5]): Active

Molecule: O=C(O[C@@H]1O[C@@H]2COC(=O)c3cc(O)c(O)c(O)c3-c3c(cc(Oc4c(C(=O)O[C@@H]5O[C@@H]6COC(=O)c7cc(O)c(O)c(O)c7-c7c(cc(Oc8c(C(=O)O[C@@H]9O[C@@H]%10COC(=O)c%11cc(O)c(O)c(O)c%11-c%11c(cc(O)c(O)c%11O)C(=O)O[C@H]%10[C@H](OC(=O)c%10cc(O)c(O)c(O)c%10)[C@H]9OC(=O)c9cc(O)c(O)c(O)c9)cc(O)c(O)c8O)c(O)c7O)C(=O)O[C@H]6[C@H](OC(=O)c6cc(O)c(O)c(O)c6)[C@H]5OC(=O)c5cc(O)c(O)c(O)c5)cc(O)c(O)c4O)c(O)c3O)C(=O)O[C@H]2[C@H](OC(=O)c2cc(O)c(O)c(O)c2)[C@H]1OC(=O)c1cc(O)c(O)c(O)c1)c1cc(O)c(O)c(O)c1
- MIC (Staphylococcus aureus [2]): 23 µM (≈ 64.7 µg/mL)
- MIC (Staphylococcus aureus [3]): 91 µM (≈ 256 µg/mL)
- MIC (Staphylococcus aureus [4]): 91 µM (≈ 256 µg/mL)
- MIC (Pseudomonas aeruginosa [1]; PAO1, 24 h): > 364 µM
- MIC (Pseudomonas aeruginosa [5]): 23 µM (≈ 64.7 µg/mL)
- Retention time (Albumin [6]): 9 to 12 min
- Activity (Albumin [7]): Active

Molecule: O=C(OC[C@H]1O[C@@H](OC(=O)c2cc(O)c(O)c(O)c2)[C@H](OC(=O)c2cc(O)c(O)c(O)c2)[C@@H](OC(=O)c2cc(O)c(O)c(O)c2)[C@@H]1OC(=O)c1cc(O)c(O)c(O)c1)c1cc(O)c(O)c(O)c1 [PENTAGALLOYL GLUCOSE]
- inhibition (Pseudomonas aeruginosa [5]): Active
- MIC (Staphylococcus aureus [8]): 68 µM (≈ 64 µg/mL)
- MIC (Staphylococcus aureus [9]): 68 µM (≈ 64 µg/mL)
- MIC (Staphylococcus aureus [10]): 68 µM (≈ 64 µg/mL)

Molecule: Cc1onc(-c2ccccc2)c1C(=O)N[C@@H]1C(=O)N2[C@@H]1SC(C)(C)[C@@H]2C(=O)O [OXACILLIN]
- MIC (Staphylococcus aureus [2]): < 0.6 µM
- MIC (Staphylococcus aureus [3]): 638 µM (≈ 256 µg/mL)
- MIC (Staphylococcus aureus [4]): 319 µM (≈ 128 µg/mL)

Molecule: O=C(O[C@@H]1O[C@@H]2COC(=O)c3cc(O)c(O)c(O)c3-c3c(cc(Oc4c(C(=O)O[C@@H]5O[C@@H]6COC(=O)c7cc(O)c(O)c(O)c7-c7c(cc(O)c(O)c7O)C(=O)O[C@H]6[C@H](OC(=O)c6cc(O)c(O)c(O)c6)[C@H]5OC(=O)c5cc(O)c(O)c(O)c5)cc(O)c(O)c4O)c(O)c3O)C(=O)O[C@H]2[C@H](OC(=O)c2cc(O)c(O)c(O)c2)[C@H]1OC(=O)c1cc(O)c(O)c(O)c1)c1cc(O)c(O)c(O)c1
- MIC (Staphylococcus aureus [2]): 34 µM (≈ 63.8 µg/mL)
- MIC (Staphylococcus aureus [3]): 34 µM (≈ 63.8 µg/mL)
- MIC (Staphylococcus aureus [4]): 68 µM (≈ 128 µg/mL)
- MIC (Pseudomonas aeruginosa [1]; PAO1, 24 h): > 546 µM
- MIC (Pseudomonas aeruginosa [5]): 34 µM (≈ 63.8 µg/mL)
- Retention time (Albumin [6]): 9 to 12 min
- Activity (Albumin [7]): Active
